Data as given in ChEMBL document CHEMBL4177521, “Therapeutic Potential of Fatty Acid Amide Hydrolase, Monoacylglycerol Lipase, and N-Acylethanolamine Acid Amidase Inhibitors” (J Med Chem, 2017).
One block for each compound: values may come before it.

Legend:
[1] = molecular target: T1, Fatty-acid amide hydrolase 1 (Rattus norvegicus, UniProt P97612); experiment: Inhibition of rat FAAH expressed in HEK293 cells by LC/MS analysis; type: cell-based
T1 sequence (P97612 whole entry): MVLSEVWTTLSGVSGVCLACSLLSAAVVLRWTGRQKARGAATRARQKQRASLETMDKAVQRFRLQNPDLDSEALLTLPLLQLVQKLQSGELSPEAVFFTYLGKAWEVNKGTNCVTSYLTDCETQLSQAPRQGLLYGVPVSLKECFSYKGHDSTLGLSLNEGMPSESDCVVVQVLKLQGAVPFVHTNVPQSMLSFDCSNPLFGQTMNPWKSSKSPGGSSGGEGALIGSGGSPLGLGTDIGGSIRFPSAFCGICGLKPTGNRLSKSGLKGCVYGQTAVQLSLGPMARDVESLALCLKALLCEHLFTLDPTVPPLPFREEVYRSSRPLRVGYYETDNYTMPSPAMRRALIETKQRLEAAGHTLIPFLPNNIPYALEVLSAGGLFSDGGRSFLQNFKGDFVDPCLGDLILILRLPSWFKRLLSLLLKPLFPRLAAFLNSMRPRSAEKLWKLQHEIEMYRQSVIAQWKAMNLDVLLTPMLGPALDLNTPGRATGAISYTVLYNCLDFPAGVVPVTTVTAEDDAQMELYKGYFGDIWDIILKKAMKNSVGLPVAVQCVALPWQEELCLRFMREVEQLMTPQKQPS

[2] = molecular target: T2, N-acylethanolamine-hydrolyzing acid amidase (Rattus norvegicus, UniProt Q5KTC7); experiment: Inhibition of rat NAAA expressed in HEK293 cells by LC/MS analysis; type: cell-based
T2 sequence (Q5KTC7 whole entry): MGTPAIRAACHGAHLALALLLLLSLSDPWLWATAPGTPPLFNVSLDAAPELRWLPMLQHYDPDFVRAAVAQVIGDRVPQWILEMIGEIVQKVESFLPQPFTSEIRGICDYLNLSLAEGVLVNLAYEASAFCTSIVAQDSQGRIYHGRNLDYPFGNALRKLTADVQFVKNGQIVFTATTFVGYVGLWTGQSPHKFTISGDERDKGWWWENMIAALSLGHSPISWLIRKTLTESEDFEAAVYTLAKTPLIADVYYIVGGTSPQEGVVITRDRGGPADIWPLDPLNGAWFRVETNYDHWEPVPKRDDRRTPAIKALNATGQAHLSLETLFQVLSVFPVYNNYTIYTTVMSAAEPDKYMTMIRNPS

Cannabinoid receptor 1 = Cannabinoid receptor 1 (Homo sapiens, UniProt P21554); experiment: Antagonist activity at CB1R (unknown origin); type: functional
Cannabinoid receptor 1, sequence (P21554 whole entry): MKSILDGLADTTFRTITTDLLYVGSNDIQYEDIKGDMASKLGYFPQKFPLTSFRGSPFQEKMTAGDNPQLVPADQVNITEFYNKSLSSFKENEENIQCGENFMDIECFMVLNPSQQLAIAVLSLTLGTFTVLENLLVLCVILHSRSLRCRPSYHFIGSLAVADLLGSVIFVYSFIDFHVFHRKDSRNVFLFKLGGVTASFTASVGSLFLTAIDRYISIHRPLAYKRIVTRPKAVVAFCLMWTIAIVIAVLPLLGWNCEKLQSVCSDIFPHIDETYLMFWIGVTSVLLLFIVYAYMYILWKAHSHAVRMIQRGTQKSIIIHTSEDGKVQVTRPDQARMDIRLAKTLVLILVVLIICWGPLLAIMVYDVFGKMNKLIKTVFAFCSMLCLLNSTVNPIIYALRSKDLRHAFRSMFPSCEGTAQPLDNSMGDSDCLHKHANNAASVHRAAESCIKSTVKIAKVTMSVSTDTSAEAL

Monoglyceride lipase = molecular target: T3, Monoglyceride lipase (Homo sapiens, UniProt Q99685); experiment: Inhibition of human MAGL
T3 sequence (Q99685 whole entry): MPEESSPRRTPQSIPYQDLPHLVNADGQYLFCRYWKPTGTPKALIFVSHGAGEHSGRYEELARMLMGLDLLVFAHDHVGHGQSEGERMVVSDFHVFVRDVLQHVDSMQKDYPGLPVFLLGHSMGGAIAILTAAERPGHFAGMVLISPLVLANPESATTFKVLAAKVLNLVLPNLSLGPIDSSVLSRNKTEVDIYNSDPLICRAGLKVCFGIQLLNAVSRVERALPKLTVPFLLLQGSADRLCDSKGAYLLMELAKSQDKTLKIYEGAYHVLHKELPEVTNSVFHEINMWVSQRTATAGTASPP

[3] = molecular target: T4, Fatty-acid amide hydrolase 1 (Homo sapiens, UniProt O00519); experiment: Inhibition of FAAH (unknown origin)
T4 sequence (O00519 whole entry): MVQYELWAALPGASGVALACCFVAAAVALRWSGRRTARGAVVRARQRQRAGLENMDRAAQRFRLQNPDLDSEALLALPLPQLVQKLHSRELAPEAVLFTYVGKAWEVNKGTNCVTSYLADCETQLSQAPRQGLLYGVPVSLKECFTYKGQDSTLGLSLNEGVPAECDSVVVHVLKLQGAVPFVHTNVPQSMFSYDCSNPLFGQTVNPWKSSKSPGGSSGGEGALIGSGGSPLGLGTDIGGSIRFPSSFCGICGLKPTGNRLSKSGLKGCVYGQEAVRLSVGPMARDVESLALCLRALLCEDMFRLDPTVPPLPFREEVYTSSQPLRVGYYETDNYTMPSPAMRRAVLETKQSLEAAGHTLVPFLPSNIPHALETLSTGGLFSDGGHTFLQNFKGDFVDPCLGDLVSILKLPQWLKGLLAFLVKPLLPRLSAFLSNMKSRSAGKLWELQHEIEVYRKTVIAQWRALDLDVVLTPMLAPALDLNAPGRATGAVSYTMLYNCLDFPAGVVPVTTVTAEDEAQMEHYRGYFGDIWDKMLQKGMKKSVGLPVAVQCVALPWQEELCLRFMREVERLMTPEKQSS

[4] = molecular target: T5, N-acylethanolamine-hydrolyzing acid amidase (Homo sapiens, UniProt Q02083); experiment: Inhibition of NAAA (unknown origin)
T5 sequence (Q02083 whole entry): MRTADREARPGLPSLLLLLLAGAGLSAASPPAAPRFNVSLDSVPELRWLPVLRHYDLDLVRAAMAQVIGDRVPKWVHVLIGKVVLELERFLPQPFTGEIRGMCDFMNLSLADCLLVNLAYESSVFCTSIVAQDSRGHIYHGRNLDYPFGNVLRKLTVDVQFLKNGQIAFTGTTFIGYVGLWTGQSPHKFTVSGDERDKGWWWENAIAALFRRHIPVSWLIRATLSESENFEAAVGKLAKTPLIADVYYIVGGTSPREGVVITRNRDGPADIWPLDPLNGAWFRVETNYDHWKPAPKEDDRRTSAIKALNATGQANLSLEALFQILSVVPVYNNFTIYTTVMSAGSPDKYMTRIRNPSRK

[5] = molecular target: T6, Fatty-acid amide hydrolase 1 (Mus musculus, UniProt O08914); experiment: Inhibition of CD1 mouse FAAH
T6 sequence (O08914 whole entry): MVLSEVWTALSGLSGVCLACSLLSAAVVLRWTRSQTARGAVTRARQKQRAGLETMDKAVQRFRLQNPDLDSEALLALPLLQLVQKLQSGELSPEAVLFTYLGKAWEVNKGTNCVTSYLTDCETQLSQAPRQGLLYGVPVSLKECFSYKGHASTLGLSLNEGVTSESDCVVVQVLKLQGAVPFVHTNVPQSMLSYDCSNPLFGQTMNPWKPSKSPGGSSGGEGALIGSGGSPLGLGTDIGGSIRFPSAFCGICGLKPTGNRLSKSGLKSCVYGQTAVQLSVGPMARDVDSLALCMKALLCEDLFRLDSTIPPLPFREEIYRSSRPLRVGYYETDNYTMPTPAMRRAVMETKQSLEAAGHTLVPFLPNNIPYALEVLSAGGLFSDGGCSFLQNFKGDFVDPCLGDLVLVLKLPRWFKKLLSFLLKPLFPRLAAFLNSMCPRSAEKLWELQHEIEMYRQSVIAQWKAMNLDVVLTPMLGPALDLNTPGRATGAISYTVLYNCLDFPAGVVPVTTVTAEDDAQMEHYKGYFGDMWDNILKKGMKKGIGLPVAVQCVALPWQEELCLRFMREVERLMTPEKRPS

[6] = Half life in mouse liver microsomes; type: ADME, microsome
[7] = Half life in rat plasma; type: ADME, cell-free
[8] = Half life in mouse plasma; type: ADME, cell-free
[9] = Half life in rat liver microsomes; type: ADME, microsome
[10] = Cmax in CD1 mouse plasma at 3 mg/kg, iv; type: ADME, organism-based; design: dose 3 mg/kg, route intravenous; details: in vivo
[11] = Half life in CD1 mouse plasma at 3 mg/kg, iv; type: ADME, organism-based
[12] = molecular target: T1, Fatty-acid amide hydrolase 1; experiment: Inhibition of Sprague-Dawley rat brain FAAH using [14C]anandamide as substrate by liquid scintillation counting method
[13] = Half life in monkey at 10 mg/kg, po or 1 mg/kg, iv; type: ADME, organism-based, Macaca mulatta; details: rhesus monkey, in vivo
[14] = Oral bioavailability in monkey at 10 mg/kg; type: ADME, organism-based, Macaca mulatta; details: rhesus monkey, in vivo
[15] = molecular target: T6, Fatty-acid amide hydrolase 1; experiment: Inhibition of mouse brain membrane FAAH preincubated for 10 mins followed by 14C-oleamide substrate addition measured up to 60 mins by TLC analysis

SMILES: CCCCCCCCCCCCCCCN=C=S
- IC50 (Cannabinoid receptor 1): > 10000 nM
- IC50 (Monoglyceride lipase): > 10000 nM

SMILES: S=C=NCCCCCCCCCCc1ccccc1
- IC50 [3]: > 100000 nM
- IC50 [4]: 30 nM

SMILES: CCCCCCCCCCCCCCCCS(=O)(=O)F [HEXADECANESULFONYL FLUORIDE]
- IC50 [12]: 13 nM

SMILES: COc1cc(NC(=O)C(=O)c2c(C)n(Cc3ccc(Cl)cc3)c3ccc(C)cc23)ccn1
- IC50 [3]: 10 nM
- IC50 (Cannabinoid receptor 1): > 1000 nM
- half-life [13]: 1020 to 1200 min
- bioavailability [14]: 14 to 21%

The remaining lines, values ahead:

- IC50 [1]: > 100000 nM
- IC50 [2]: 2120 nM
SMILES: O=C(CCc1ccc(-c2ccccc2)cc1)N1CCCC1

- IC50 [5]: 9 nM
SMILES: C=C(OC(=O)N1CCCCC1)c1ccc(-c2ccccc2)cc1

- half-life [6]: < 5 min
- t1/2 [7]: 12 min
- t1/2 [8]: 41 min
- half-life [9]: < 5 min
- Cmax [10]: 1610 ng/mL
- half-life [11]: 15 min
SMILES: O=C(N[C@H]1CNC1=O)OCCCCC1CCCCC1

- IC50 [15]: 12.4 nM
SMILES: CN(C)C(=O)n1nnnc1Cc1ccc(-c2ccccc2)cc1
